From the NIST ThermoML archive (doi:10.1016/j.jct.2013.10.031)

Settings: for vapor or sublimation pressure: Liquid, Closed cell (Static) method; for mass density: Gas, Burnett expansion method

FCC(F)(F)F [1,1,1,2-tetrafluoroethane]
Settings	vapor or sublimation pressure [kPa]
252.12 K	127.2
256.18 K	151.4
260.19 K	178.5
264.2 K	209.6
268.21 K	244.3
272.14 K	283
276.09 K	326.1
280.13 K	374.9
284.1 K	428.7
288.09 K	487
292.13 K	554.1
296.32 K	630.3
300.17 K	707.1
304.12 K	792.4
308.12 K	887
312.19 K	991.8
316.2 K	1103.5
320.09 K	1220.6

CCC [propane]
Settings	vapor or sublimation pressure [kPa]
252.1 K	236
256.21 K	273.3
260.1 K	311.1
264.21 K	358.7
268.09 K	406
272.13 K	460.2
276.14 K	519.7
280.21 K	585.8
284.09 K	653.2
288.1 K	731.4
292.1 K	814.2
296.21 K	906.2
300.18 K	1001.8
304.19 K	1107.5
308.18 K	1219.8
312.17 K	1339.6
316.2 K	1468.9
320.19 K	1606.7

N#N [nitrogen]
mass density [kg/m3]
Settings	634.95 kPa	845.67 kPa	1127.1 kPa	1502.9 kPa	2004.5 kPa
322.97 K	–	8.818	11.749	–	20.889
322.98 K	6.619	–	–	15.668	–
